According to patent US10196363B2, “Dihydropyrimidin-2-one compounds and medical use thereof” (JAPAN TOBACCO INC., priority 2014, dated 2019):
pEC50: −log10 of the molar value. Like-named read-outs stand apart in the source and are kept apart here.

Key:
[1] = molecular target: T1, human RORγ (Homo sapiens, UniProt P51449); test: In vitro assay of inhibitory effect against RORγ transcriptional activity (GAL4-hRORγ LBD luciferase reporter gene assay in CHO cells); format: cell-based; details: for hRORγ luciferase activity, %-of-control: value in parentheses beside the > EC50 bound, vehicle-control 0.2% DMSO alone = 100%
T1 construct: human RORγ, from Ser253 to Lys518; expressed in transfected cells; host or cells: CHO cells (Chinese hamster ovary), transient co-transfection with pG5-Luc
T1 sequence (P51449 253-518): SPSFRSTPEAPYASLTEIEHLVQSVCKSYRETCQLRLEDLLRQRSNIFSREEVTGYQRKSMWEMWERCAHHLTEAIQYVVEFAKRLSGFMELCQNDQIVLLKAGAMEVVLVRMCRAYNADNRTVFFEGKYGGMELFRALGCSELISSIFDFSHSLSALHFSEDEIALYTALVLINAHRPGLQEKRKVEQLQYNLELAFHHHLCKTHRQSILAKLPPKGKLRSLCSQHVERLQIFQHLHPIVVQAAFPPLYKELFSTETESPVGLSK
Procedure, shortened: (§1)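 CHO cells, transient GAL4-RORγ LBD + pG5-Luc; cmpd 8 conc, 0.2% DMSO, 2 d, 37 °C, 5% CO2. SteadyLite luminescence, %-of-DMSO control (100%), EC50 by curve fit. Cytotoxic concentrations (resazurin) excluded.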

[2] = molecular target: T2, mouse RORγ (Mus musculus, UniProt P51450); test: In vitro assay of inhibitory effect against RORγ transcriptional activity (GAL4-mRORγ LBD luciferase reporter gene assay in CHO cells); format: cell-based; details: for mRORγ luciferase activity, %-of-control: value in parentheses beside the > EC50 bound, vehicle-control 0.2% DMSO alone = 100%
T2 construct: mouse RORγ, from Ile251 to Lys516; expressed in transfected cells; host or cells: CHO cells (Chinese hamster ovary), transient co-transfection with pG5-Luc
T2 sequence (P51450 251-516): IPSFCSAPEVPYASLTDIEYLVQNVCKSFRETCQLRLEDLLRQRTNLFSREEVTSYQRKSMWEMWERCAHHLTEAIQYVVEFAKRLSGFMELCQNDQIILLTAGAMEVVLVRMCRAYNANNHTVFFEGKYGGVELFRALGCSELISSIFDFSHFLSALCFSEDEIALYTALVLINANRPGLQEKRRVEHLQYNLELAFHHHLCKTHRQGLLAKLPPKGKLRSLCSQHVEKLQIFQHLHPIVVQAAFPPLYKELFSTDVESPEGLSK
Procedure, shortened: as §1

[3] = GAL4-hRORγ LBD / pG5-Luc in CHO cells, 2 days incubation
[4] = GAL4-mRORγ LBD / pG5-Luc in CHO cells, 2 days incubation
[5] = GAL4-hRORγ LBD luciferase reporter, CHO cells, read-out: LUC EC50 hRORγ
[6] = GAL4-mRORγ LBD luciferase reporter, CHO cells, read-out: LUC EC50 mRORγ

Structure (SMILES)	pEC50 [1, 3]	hRORγ luciferase activity, %-of-control [1]	pEC50 [2, 4]	mRORγ luciferase activity, %-of-control [2]	pEC50 [1, 5]	pEC50 [2, 6]
CC(C)C1=CN(CCC(=O)O)C(=O)N[C@]1(C)c1ccc(CCC2CC(C)(C)C2)c(Cl)c1 [Example 141]	< 5.10	(57%)	< 5.10	(52%)	–	–
CC(C)C1=CN(CCC(=O)O)C(=O)N[C@@]1(C)c1ccc(CCC2CC(C)(C)C2)c(Cl)c1 [Example 142]	< 6.29	(102%)	7.31	–	–	–
CC(C)C1=CN(CCC(=O)O)C(=O)N[C@]1(C)c1ccc(CCc2ccccc2)c(Cl)c1 [Example 143]	< 5.10	(90%)	< 5.10	(100%)	–	–
CC(C)C1=CN(CCC(=O)O)C(=O)N[C@@]1(C)c1ccc(CCc2ccccc2)c(Cl)c1 [Example 144]	< 6.29	(60%)	7.43	–	–	–
CC(C)(C)CCc1ccc([C@@]2(C)NC(=O)N(CCCC(=O)O)C=C2C2CC(F)(F)C2)cc1Cl [Example 145]	5.69	–	5.40	–	–	–
CC(C)(C)CCc1ccc([C@]2(C)NC(=O)N(CCCC(=O)O)C=C2C2CC(F)(F)C2)cc1Cl [Example 146]	7.85	–	7.92	–	–	–
CC(C)C1=CN(CCC(=O)O)C(=O)N[C@@]1(C)c1ccc(COC(C)(C)C)c(Cl)c1 [Example 147]	7.23	–	7.52	–	–	–
CC(C)C1=CN(CCC(=O)O)C(=O)N[C@]1(C)c1ccc(C2=CCCC2)c(Cl)c1 [Example 148]	< 5.10	(57%)	< 5.10	(69%)	–	–
CC(C)C1=CN(CCC(=O)O)C(=O)N[C@@]1(C)c1ccc(C2=CCCC2)c(Cl)c1 [Example 149]	5.99	–	6.61	–	–	–
CC(C)CCOc1ccc([C@]2(C)NC(=O)N(CCC(=O)O)C=C2C(C)C)cc1Cl [Example 150]	7.68	–	7.92	–	–	–
CC(C)C1=CN(CCC(=O)O)C(=O)N[C@]1(C)c1ccc(C2CCC2)c(Cl)c1 [Example 152]	< 4.70	(56%)	< 4.70	(57%)	–	–
CC(C)C1=CN(CCC(=O)O)C(=O)N[C@@]1(C)c1ccc(C2CCC2)c(Cl)c1 [Example 153]	6.49	–	6.94	–	–	–
CC(C)C1=CN(C[C@H]2C[C@H](C(=O)O)C2)C(=O)N[C@@]1(C)c1ccc(CCC(C)(C)C)c(Cl)c1 [Example 154, 3-{(S)-4-[3-chloro-4-(3,3-dimethyl-butyl)-phenyl]-5-isopropyl-4-methyl-2-oxo-3,4-dihydro-2H-pyrimidin-1-ylmethyl}-cyclobutanecarboxylic acid]	8.00	–	7.85	–	–	–
CC(C)C1=CN(CCC(=O)O)C(=O)N[C@]1(C)c1ccc(C2CCCC2)c(Cl)c1 [Example 155]	< 5.10	(83%)	< 5.10	(81%)	–	–
CC(C)C1=CN(CCC(=O)O)C(=O)N[C@@]1(C)c1ccc(C2CCCC2)c(Cl)c1 [Example 156]	6.28	–	6.78	–	–	–
CC(C)OCc1ccc([C@]2(C)NC(=O)N(CCC(=O)O)C=C2C(C)C)cc1Cl [Example 157]	6.30	–	6.59	–	–	–
CC(C)C1=CN(CCC(=O)O)C(=O)N[C@@]1(C)c1ccc(CC[Si](C)(C)C)c(Cl)c1 [Example 158]	7.52	–	7.64	–	–	–
CC(C)C1=CN(c2ccc(C(=O)O)cc2)C(=O)N[C@@]1(C)c1ccc(CCC(C)(C)C)c(Cl)c1 [Example 159, 4-{(S)-4-[3-chloro-4-(3,3-dimethyl-butyl)-phenyl]-5-isopropyl-4-methyl-2-oxo-3,4-dihydro-2H-pyrimidin-1-yl}-benzoic Acid]	7.68	–	7.64	–	–	–
CC(C)C1=CN(CCC(=O)O)C(=O)N[C@@]1(C)c1cc(F)c(OCc2ccccc2)c(Cl)c1 [Example 161]	6.81	–	7.33	–	–	–
CC(C)C1=CN([C@H]2CC(=O)N(CC(=O)O)C2)C(=O)N[C@@]1(C)c1ccc(CCC(C)(C)C)c(Cl)c1 [Example 162]	6.76	–	6.56	–	–	–

Structure (SMILES)	pEC50 [1, 3]	hRORγ luciferase activity, %-of-control [1]	pEC50 [2, 4]	mRORγ luciferase activity, %-of-control [2]	pEC50 [1, 5]	pEC50 [2, 6]
CC(C)C1=CN([C@@H]2CC(=O)N(CC(=O)O)C2)C(=O)N[C@@]1(C)c1ccc(CCC(C)(C)C)c(Cl)c1 [Example 163]	6.84	–	6.57	–	–	–
CC(C)C1=CN(CCC(=O)O)C(=O)N[C@@]1(C)c1cc(F)c(OCC(C)(C)C)c(Cl)c1 [Example 164]	7.74	–	7.96	–	–	–
CC(C)C1=CN(CCC(=O)O)C(=O)N[C@@]1(C)c1cc(F)c(OCCC(C)(C)C)c(Cl)c1 [Example 165]	7.57	–	7.77	–	–	–
CC(C)C1=CN(CCC(=O)O)C(=O)N[C@@]1(C)c1ccc(C2CC3(CCC3)C2)c(Cl)c1 [Example 173]	7.66	–	7.96	–	–	–
CC(C)C1=CN(CCC(=O)O)C(=O)N[C@@]1(C)c1cc(F)c(CCC(C)(C)C)c(Cl)c1 [Example 175]	8.05	–	7.92	–	–	–
CC(C)C1=CN(CCC(=O)O)C(=O)N[C@@]1(C)c1ccc(CCC(C)(C)C)c(F)c1 [Example 176]	7.66	–	7.89	–	–	–
CCC(CC)Cc1ccc([C@]2(C)NC(=O)N(CCC(=O)O)C=C2C(C)C)cc1Cl [Example 177]	7.77	–	7.77	–	–	–
CCCC(CCC)Cc1ccc([C@]2(C)NC(=O)N(CCC(=O)O)C=C2C(C)C)cc1Cl [Example 178]	7.72	–	7.68	–	–	–
CC(C)C1=CN(CCC(=O)O)C(=O)N[C@@]1(C)c1ccc(C(C)CC(C)(C)C)c(Cl)c1 (stereo partly drawn) [Example 179]	7.19	–	7.57	–	–	–
CC(C)COc1ccc([C@]2(C)NC(=O)N(CCC(=O)O)C=C2C(C)C)cc1Cl [Example 183]	6.93	–	7.11	–	–	–
CC(C)C1=CN(CCC(=O)O)C(=O)N[C@@]1(C)c1ccc(CCC(C)(C)C(F)(F)F)c(Cl)c1 [Example 185]	8.05	–	7.85	–	–	–
CC(C)C1=CN(C23CC(C(=O)O)(C2)C3)C(=O)N[C@@]1(C)c1ccc(CCC(C)(C)C)c(Cl)c1 [Example 186]	7.04	–	6.94	–	–	–
CC(C)C1=CN(CCC(=O)O)C(=O)N[C@@]1(C)c1cc(F)c(/C=C/C(C)(C)C)c(Cl)c1 [Example 189]	7.52	–	7.66	–	–	–
CC(C)CCOc1c(F)cc([C@]2(C)NC(=O)N(c3ccc(C(=O)O)cc3)C=C2C(C)C)cc1Cl [Example 192]	–	–	–	–	7.77	7.96
CC(C)C1=CN(c2ccc(C(=O)O)cc2)C(=O)N[C@@]1(C)c1cc(F)c(OCC(C)(C)C)c(Cl)c1 [Example 193]	–	–	–	–	7.74	7.72
CC(C)COc1c(F)cc([C@]2(C)NC(=O)N(CCC(=O)O)C=C2C(C)C)cc1Cl [Example 194]	–	–	–	–	7.24	7.55
CC(C)CCOc1c(F)cc([C@]2(C)NC(=O)N(CCC(=O)O)C=C2C(C)C)cc1Cl [Example 195]	–	–	–	–	7.74	7.92
CC(C)C1=CN(c2ccc(C(=O)O)cc2)C(=O)N[C@@]1(C)c1ccc(CCC(C)(C)C(F)(F)F)c(Cl)c1 [Example 196]	–	–	–	–	8.05	7.77
CO[C@H]1C[C@H](N2C=C(C(C)(C)CCC(=O)O)[C@](C)(c3ccc(CCC(C)(C)C)c(Cl)c3)NC2=O)C1 [Example 197]	–	–	–	–	7.89	7.64
